The source of these data is patent publication US20250213700A1, “COMPOUNDS, COMPOSITIONS, AND METHODS FOR CELL-SPECIFIC PHARMACOLOGY” (Duke University, priority 2022, published 2025).

One test deals with endogenous GABAARs. Nature of the test: all-optical assay of GABAAR antagonism in primary neuronal culture. Format: cell-based, rat. As for the experimental part: Cultured neuronal assays: Preparation of hippocampal cultures: Mixed glial and neuronal cultures were prepared from the hippocampus of postnatal day 0 to 1 Sprague-Dawley rat pups. Separate pools of dissociated cells were transfected via electroporation (LONZA, V4SP-3096) with plasmid constructs, and depending on assay directives, either plated individually or mixed with a different pool of electroporated cells after a 10 min recovery period. Cells were cultured on coverslips (Deckglaser) pre-treated with high molecular weight poly-D-lysine (Sigma, P7405; 0.05 mg/mL) in 24-well plates and maintained in NbActiv4 (BrainBits, Nb4-500) at 37 C, 5% CO2. Media was changed by half at DIV3 or 4 and then weekly thereafter; experiments were performed between DIV16 to DIV18.
Gabazine: Dissociated neurons were electroporated with constructs and cultured for 2 weeks. The assay was performed in the same BASE solution as described above, but with the addition of synaptic blockers CPP (NMDAR antagonist; Tocris) and NBQX (AMPAR antagonist; Abcam, ab120046) to isolate GABAR activity, and a small amount of GABA (GABAR agonist; Sigma) to ensure GABAR activity (=GABAR-BASE). […] Instead, a high dose of regular gabazine was used to completely silence any cells that may not have had realized full antagonism by the end of the assay. Imaging alignment, proof-reading and analysis were performed in a similar fashion to the AMPAR assay using MatLab.
It was next focused on blocking the GABAAR, a ubiquitous transducer of synaptic inhibition. […] The structure-activity literature of gabazine, a selective GABAAR antagonist, was explored. The core gabazine pharmacophore includes of a 3-amino, 6-phenoxy-pyridazine ring, with GABA embedded in the 2-position (2 butyric acid). Based on historical, low-potency predecessors of gabazine, a longer GABA moiety (2 pentanoic acid), and methyl substituents (e.g., 5-CH3) were explored (FIG. 2F). For each variant, the 6-phenoxy moiety was modified to make a gabazinealkyne module, which was click-conjugated to DART.2. Several variants were made, including gabazine.1^DART.2 (2 butyric acid, 5-H), gabazine.5DART.2 (2 pentanoic acid, 5-H), and gabazine.7DART.2 (2 pentanoic acid, 5-CH3). An all-optical assay of endogenous GABAARs in primary neuronal culture was then developed. […] Excitatory synapses were blocked, such that opto-stimulation with ChR2 became the only source of neural excitation.

In a further test the test system is GABAAR. Nature of the test: VTA slice, evoked GABAAR IPSCs on midbrain dopamine neurons. Format: cell-based, mouse. Particulars: 300 nM (FIG. 4E). The source says: FIG. 4A-4F show the DART.2 platform can enable safe use of epileptogenic pharmaceuticals in awake behaving animals. (FIG. 4A) Validation of gabazine.1^DART.2 in cerebellar slice. Top: voltage-clamp schematic. Bottom: tonic GABAAR in granule cells expressing ^+HTP or ^ddHTP. […] Data are mean±SEM, cells normalized to baseline. (FIG. 4B) In vivo delivery of gabazine.1^DART.2 to cerebellar granule cells. Top right: schematic of experimental approach, GCaMP6f granule-cell activity obtained in the absence of sensory stimuli. Top left: example field of view, GCaMP6f signal averaged across trials. Bottom: example calcium traces (ΔF/F) in an awake ^+HTP mouse before (baseline) and after (1 μL of 1 μM gabazine.1^DART.2) infusion. (FIG. 4C) In vivo, 1 μL of 1 μM gabazine.1^DART.2 to ^+HTP mice. Color indicates ΔF/F, each row is one cell before (left) and after (right) gabazine.1^DART.2 infusion. Full dataset from 6 mice (n=1707 cells, p<0.0001, paired t-test, before vs after infusion). (FIG. 4D) In vivo, 1 μL of 1 μM gabazine.1^DART.2 to ^ddHTP mice. Format as in panel C. Full dataset from 4 mice (n=1084 cells, p=0.76, paired t-test, before vs after infusion). (FIG. 4E) Validation of gabazine.7^DART.2 in VTA slice. Top: evoked-IPSC configuration. […] Data are mean±SEM, cells normalized to baseline. Control experiments confirmed the GABAAR specificity of the manipulation. […] Data are mean±SEM, normalized to baseline speed of each animal.
Electrophysiology. Preparation of Brain slices: Mice (8-10 weeks) were injected AAV10 HaloTag™-dTomato to striatum or ventral tegmental area (VTA). After 3-5 weeks, mice were deeply anesthetized with isoflurane and euthanized by decapitation. Coronal brain slices ([…]) containing striatum or VTA were prepared by standard methods using a Vibratome (Leica, VT 1200S), in ice-cold high sucrose cutting solution containing (in mM) 220 sucrose, 3 KCl, 1.25 NaH2PO4, 25 NaHCO3, 12 MgSO4.7H2O, 10 glucose, and 0.2 CaCl2) bubbled with 95% O2 and 5% CO2. The slices were placed into modified artificial cerebrospinal fluid (aCSF) containing (in mM): 120 NaCl, 3.3 KCl, 1.23 NaH2PO4, 1 MgSO4, 2 CaCl2), 25 NaHCO3, and 10 glucose at pH 7.3, previously saturated with 95% O2 and 5% CO2. For recovery, the slices were incubated at 33° C. for 40-60 min in the bubbled ACSF solution and then allowed to cool to room temperature (22-24° C.) until the recordings were initiated.
Whole-cell patch-clamp recording: The brain slices or retinas were perfused with bubbled aCSF at 29-30° C. with a 2 ml/min flow rate. Recordings were made by whole cell patch recording techniques using a Multiclamp 700B amplifier (Molecular Devices, Axon Instruments Inc., Union City, CA). The signals were filtered at 10 KHz and acquired using Digitate 1440A and pClamp 10.7 (Molecular Devices). […]

For `COc1cc(CCCCl)ccc1CCOCCNC(=O)c1ccc(CNC(=O)CCOCCOCCOCCOCCOCCOCCOCCOCCOCCOCCOCCOCCOCCOCCOCCOCCOCCOCCOCCOCCOCCOCCOCCOCCOCCOCCOCCOCCOCCOCCOCCOCCOCCOCCOCCOCCn2cc(COCCOCCOCCOCCOCCOCCOCCCCCCOc3ccc(-c4nn(CCCCC(=O)O)c(=N)cc4C)cc3)nn2)cc1` [gabazine.7DART.2], in the test on endogenous GABAARs, the “increase in DW vs gabazine.1DART.2” value was roughly 6 fold, the “increase in HTL50 vs gabazine.1DART.2” value is roughly 3 fold and the “increase in Rx50 vs gabazine.1DART.2” value is listed as roughly 20 fold. Besides, the “DW (t=15 m)” value in the test on endogenous GABAARs (ddHTP vs +HTP cells, 15 min, 15 uM GABA) is 3,000. Also, in the test with GABAAR, the “evoked GABAAR current (IPSCs), +HTP neurons” value is recorded as “pronounced block of evoked GABAAR current” and the “evoked GABAAR current (IPSCs), ddHTP cells” value is “no measurable effect on ddHTP cells”. For the same compound, in the test with GABAAR (listed as gabazine.7^DART.2), the “evoked GABAAR current (IPSCs), +HTP neurons” value was “nearly complete block of evoked IPSCs” and the “evoked GABAAR current (IPSCs), ddHTP cells” value is listed as “no impact on ^ddHTP cells”.
